Source: patent US20110159520A1, “HYBRID PROTEINS COMPRISING MEMBRANE RECEPTOR AND ION CHANNEL, AND THEIR USE AS BIOSENSORS” (UNIVERSITE JOSEPH FOURIER, priority 2008, published 2011)
Blank lines part the entries; values can stand above or below the compound they belong to.

Key:
D2-K 0-25 hybrid protein = D2-K 0-25 hybrid protein (UniProt P14416+Q61743); conditions: sulpiride 5 μM during quinpirole 5 μM
Procedure: (§1) Whole-cell currents were measured using two-electrode voltage clamp (TEVC). Microelectrodes were filled with 3 M KCl and oocytes were bathed in a solution having (in mM): 91 KCl, 1.8 CaCl2, 1 MgCl2, 5 HEPES (pH 7.4) and 0.3 niflumic acid to block endogenous chloride current.
(§2) The TEVC voltage protocol consisted of 500-ms steps to −50, 0 and +50 mV—during which current was measured—repeated every 5 s, the holding potential being 0 mV.
(§3) Average values are presented as mean±s.e.m. Non-linear least-square curve fitting to the data points obtained at various concentrations of activating or inhibiting ligands was done using a standard Hill equation: […]
(§4) Ba^2+ was used as a generic K^+ channel blocker. Percent changes in current were calculated with respect to the baseline extrapolated from measurements of Ba^2+-sensitive currents before and after agonist application.

M2−K 0-25 hybrid protein = target: T1, M2−K 0-25 hybrid protein (UniProt P08172+Q61743); format: cell-based, human M2, mouse Kir6.2
T1 construct: expressed in transfected cells; host or cells: Xenopus oocytes injected with cRNA (whole-cell TEVC, or outside-out patches excised from them)
T1 sequence (P08172+Q61743 with tags, fused parts or gaps): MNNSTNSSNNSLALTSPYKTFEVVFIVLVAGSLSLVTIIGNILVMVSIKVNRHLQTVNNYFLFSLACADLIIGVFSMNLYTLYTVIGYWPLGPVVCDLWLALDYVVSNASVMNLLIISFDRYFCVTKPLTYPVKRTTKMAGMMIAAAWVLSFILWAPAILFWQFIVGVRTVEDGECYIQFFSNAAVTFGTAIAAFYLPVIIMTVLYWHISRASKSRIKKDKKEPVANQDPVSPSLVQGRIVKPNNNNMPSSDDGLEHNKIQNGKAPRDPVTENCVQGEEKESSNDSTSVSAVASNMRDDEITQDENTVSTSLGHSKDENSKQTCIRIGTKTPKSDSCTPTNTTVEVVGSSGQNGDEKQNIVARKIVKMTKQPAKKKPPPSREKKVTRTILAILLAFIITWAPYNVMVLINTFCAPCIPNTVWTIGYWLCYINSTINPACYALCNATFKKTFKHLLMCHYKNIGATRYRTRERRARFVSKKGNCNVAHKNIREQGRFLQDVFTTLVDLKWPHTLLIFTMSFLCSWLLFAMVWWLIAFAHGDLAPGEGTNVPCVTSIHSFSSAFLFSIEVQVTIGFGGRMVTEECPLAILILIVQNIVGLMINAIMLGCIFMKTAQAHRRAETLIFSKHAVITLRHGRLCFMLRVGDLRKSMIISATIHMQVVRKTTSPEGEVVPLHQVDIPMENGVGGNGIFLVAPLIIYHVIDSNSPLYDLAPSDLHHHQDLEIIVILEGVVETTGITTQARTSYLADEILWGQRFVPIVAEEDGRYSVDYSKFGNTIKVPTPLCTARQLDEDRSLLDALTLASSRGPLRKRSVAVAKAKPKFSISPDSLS
Procedure: Xenopus oocytes defoliculated by collagenase treatment were microinjected with 50 nl of water containing one or a mixture of the following quantities of cRNA:
Oocytes were incubated in individual wells in Barth's solution (KCl 1 mM, MgSO4 0.82 mM, NaCl 88 mM, NaHCO3 2.4 mM, CaCl2 0.41 mM, Ca(NO3)2 0.3 mM, Hepes 16 mM, pH 7.4) supplemented with 100 U·ml^−1 penicillin, 100 μg ml^−1 streptomycin and […] gentamycin, for at least 48 hrs at 19° C. before characterization.
as §1
Unless otherwise specified, the concentration of M2 ligands was 5 μM.
as §2, §3
Ba^2+ was used as a generic K^+ channel blocker. Percent changes in current were calculated with respect to the baseline extrapolated from measurements of Ba^2+-sensitive currents before and after agonist application. This method emphasizes reversibility and provides an underestimate of the true effects. For dose-response data, which were acquired by applying sequentially increasing concentrations of modulator to the same patch or oocyte, changes in current could only be measured with respect to the current before application, yielding somewhat larger values.

M2−K 0-20 hybrid protein = target: T2, M2−K 0-20 hybrid protein (UniProt P08172+Q61743); assay: TEVC recordings from xenopus oocytes expressing M2−K 0-20; format: cell-based, human M2, mouse Kir6.2
T2 construct: expressed in transfected cells; host or cells: Xenopus oocytes injected with cRNA
T2 sequence (P08172+Q61743 with tags, fused parts or gaps): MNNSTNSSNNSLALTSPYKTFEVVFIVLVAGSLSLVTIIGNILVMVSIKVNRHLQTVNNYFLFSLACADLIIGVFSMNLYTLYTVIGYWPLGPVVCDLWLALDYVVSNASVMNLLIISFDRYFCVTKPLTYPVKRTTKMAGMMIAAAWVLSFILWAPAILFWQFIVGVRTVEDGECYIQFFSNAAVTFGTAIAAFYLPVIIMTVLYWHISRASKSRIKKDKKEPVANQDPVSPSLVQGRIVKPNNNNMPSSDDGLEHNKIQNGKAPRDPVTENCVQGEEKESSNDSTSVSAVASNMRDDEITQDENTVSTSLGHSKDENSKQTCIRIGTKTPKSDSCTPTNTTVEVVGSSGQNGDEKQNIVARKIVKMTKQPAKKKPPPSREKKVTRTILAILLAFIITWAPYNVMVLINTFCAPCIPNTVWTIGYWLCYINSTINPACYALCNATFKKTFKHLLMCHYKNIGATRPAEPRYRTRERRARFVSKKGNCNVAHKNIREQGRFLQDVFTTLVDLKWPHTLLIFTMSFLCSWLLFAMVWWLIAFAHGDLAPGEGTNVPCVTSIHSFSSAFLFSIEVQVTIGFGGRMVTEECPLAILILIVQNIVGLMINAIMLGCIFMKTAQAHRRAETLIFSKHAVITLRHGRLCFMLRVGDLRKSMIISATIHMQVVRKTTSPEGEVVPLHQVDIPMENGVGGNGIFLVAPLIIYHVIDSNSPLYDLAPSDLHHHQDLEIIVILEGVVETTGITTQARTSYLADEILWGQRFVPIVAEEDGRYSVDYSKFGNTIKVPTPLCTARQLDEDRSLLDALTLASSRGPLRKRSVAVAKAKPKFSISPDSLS
Procedure: as §1, §2, §3, §4

[1] = tested on: CCR2 chemokine receptor fused to Kir6.2 deleted in its N-terminus part; assay: Electric flux of CCR2-Kir6.2 fusion protein; format: cell-based; conditions: final concentration from about 0.3 μM to about 2 μM
Chain of CCR2 chemokine receptor fused to Kir6.2 deleted in its N-terminus part (P41597 1-313 limits assumed): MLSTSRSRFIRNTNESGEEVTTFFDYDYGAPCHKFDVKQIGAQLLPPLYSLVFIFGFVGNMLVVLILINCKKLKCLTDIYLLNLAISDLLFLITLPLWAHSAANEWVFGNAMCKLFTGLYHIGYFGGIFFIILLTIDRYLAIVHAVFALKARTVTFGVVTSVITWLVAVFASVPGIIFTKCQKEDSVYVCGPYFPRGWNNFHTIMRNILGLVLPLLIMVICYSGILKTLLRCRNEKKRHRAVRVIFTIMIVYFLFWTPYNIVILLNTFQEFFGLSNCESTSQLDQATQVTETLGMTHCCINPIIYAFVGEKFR

Chain of D2-K 0-25 hybrid protein (P14416+Q61743 fused): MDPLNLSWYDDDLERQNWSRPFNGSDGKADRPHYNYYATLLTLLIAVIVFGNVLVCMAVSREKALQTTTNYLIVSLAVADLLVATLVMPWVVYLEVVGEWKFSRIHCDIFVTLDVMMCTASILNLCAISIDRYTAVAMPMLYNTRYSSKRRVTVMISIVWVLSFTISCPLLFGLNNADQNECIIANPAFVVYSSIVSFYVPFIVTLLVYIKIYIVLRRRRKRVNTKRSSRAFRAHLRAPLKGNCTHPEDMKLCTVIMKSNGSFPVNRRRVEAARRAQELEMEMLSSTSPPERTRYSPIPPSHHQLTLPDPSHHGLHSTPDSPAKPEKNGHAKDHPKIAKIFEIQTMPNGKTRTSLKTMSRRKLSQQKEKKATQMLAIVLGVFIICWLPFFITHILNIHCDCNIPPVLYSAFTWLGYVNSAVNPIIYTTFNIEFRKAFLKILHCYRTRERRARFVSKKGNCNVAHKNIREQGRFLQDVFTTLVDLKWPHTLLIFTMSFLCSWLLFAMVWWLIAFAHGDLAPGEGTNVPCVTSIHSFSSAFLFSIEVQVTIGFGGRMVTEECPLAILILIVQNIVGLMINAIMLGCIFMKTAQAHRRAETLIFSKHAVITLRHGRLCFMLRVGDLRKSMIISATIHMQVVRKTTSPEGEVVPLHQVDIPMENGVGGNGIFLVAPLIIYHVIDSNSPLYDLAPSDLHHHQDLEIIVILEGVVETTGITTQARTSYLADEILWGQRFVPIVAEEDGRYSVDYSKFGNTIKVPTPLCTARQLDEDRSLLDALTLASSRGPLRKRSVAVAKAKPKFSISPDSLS

effect of antagonist on quinpirole-induced decrease in current (D2-K 0-25 hybrid protein): reversed
Compound: CCN1CCCC1CNC(=O)c1cc(S(N)(=O)=O)ccc1OC (stereo not shown) [sulpiride]

sensitivity of M2−K 0-25 to Dopa (M2−K 0-25 hybrid protein; Dopa 5 μM, TEVC): insensitive
Compound: NCCc1ccc(O)c(O)c1 [Dopamine]

change of current induced by CCh (dose response) (M2−K 0-20 hybrid protein; increasing CCh concentrations): stimulated, in a dose-dependent manner
change of current induced by CCh (dose response) (M2−K 0-25 hybrid protein; increasing CCh concentrations, M2−K 0-25): stimulated, in a dose-dependent manner
Compound: C[N+](C)(C)CCOC(N)=O [CCh, carbachol]

The next lines start with the compound.

Compound: CN1[C@@H]2CC[C@H]1C[C@@H](OC(=O)C(CO)c1ccccc1)C2 (stereo partly shown) [atropine]
effect of antagonist on ACh-induced current (M2−K 0-20 hybrid protein; atropine 1 μM with ACh 5 μM): inhibits the ACh-induced current
effect of antagonist on ACh-induced current (M2−K 0-25 hybrid protein): inhibits the ACh-induced current

Compound: CCL2: CCR2 agonist: CCL2 or MCP1
generation of electric flux after stimulating the receptor [1]: generation of an electric flux
